# Patent US9061984B2 (University of Louisville Research Foundation, Inc., priority 2008, dated 2015)
# Like-named read-outs stand apart in the source and are kept apart here.
# How the values were obtained:
# VERO cells [1] = test: Cell growth inhibition bioassay (sulforhodamine B); format: cell-based, African Green Monkey; conditions: 48 h, SRB; for GI50: Chlorocebus sabaeus, Vero, read-out: GI50 in indicated cell line: VERO
# Protocol: (§1) The cytotoxicity of compounds was assayed as follows. […] Appropriate solvent controls were tested for comparison. The percent inhibition of cell growth relative to the control was evaluated colorimetrically using a sulforhodamine B dye by comparison to the control. The calorimetric procedure followed that published in Skehan et al., J. Nat. Cancer Inst., […], pp. 1107-1112 (1990) and Boyd & Paull, Drug Dev. Res., Vol. 34, pp. 91-109 (1995). […] The cell lines are: 3T3 cells are BALB/3T3 clone A31 embryonic mouse fibroblast cells; H460 cells are human large cell lung cancer cells; DU145 cells are human prostate carcinoma cells; MCF-7 cells are human breast adenocarcinoma cells; M-14 cells are human melanoma cells; HT-29 cells are human colon adenocarcinoma cells; PC3 cells are human prostate adenocarcinoma cells; K562 cells are human chronic myelogenous leukemia cells; and VERO cells are African Green Monkey kidney epithelial cells.
# [2] = system: axenic amastigotes of L. amazonensis (strain MHOM/BR/76/LTB-012); conditions: Table 8b; for IC50: read-out: L. amazonensis IC50
# [3] = Toxicity to peritoneal macrophages (Trypan Blue count); format: cell-based, BALB/C mouse; conditions: BALB/C, mouse, Cytotoxicity Macrophages IC50
# Protocol: (§2) Peritoneal macrophages were prepared as follows. Non-inflammatory macrophages (10^6) were collected from each BALB/C mouse. The cells adhered at 37° C. after 2 h under 5% CO2 in a CO2 incubator. The plates were then rinsed two to three times with 0.5 mL of RPMI+buffer MOPS without fetal calf serum to eliminate non-adhering cells. The supernatant on the plates was replaced by fresh medium (RPMI+glutamine+FCS+antibiotics), 0.5 mL of medium per well. To determine the toxicity of the compounds to macrophages, dilutions of compounds were added on a part of the macrophages prepared above. […] The medium was then removed and 1 μL of sterile Trypan Blue was added. Cover glasses N° 1 were left where cells were plated and then the number of macrophages in a microscope was determined with a haemocytometer. All experiments were performed in triplicate.
# M. tuberculosis H37Rv = test: Conventional aerobic (MABA) culture assay, luminescence MIC; format: cell-based, Mycobacterium tuberculosis; conditions: aerobic, 7 days, H37Rv; for MIC: Mycobacterium tuberculosis, 168 h
# [4] = system: Trypanosoma cruzi (Tulahuen C4); test: In vitro anti-T. cruzi activity (β-galactosidase CPRG colorimetric assay in VERO monolayer); format: cell-based; conditions: for Selectivity Index Lab B: IC50, VERO/IC50, T. cruzi
# [5] = Cytotoxicity on VERO cells (MTT), anti-T. cruzi study; conditions: African green monkey, VERO cells
# H460 cells = test: Cell growth inhibition bioassay (sulforhodamine B); format: cell-based, human; conditions: 48 h, SRB; for GI50: Homo sapiens, NCI-H460, read-out: GI50 in indicated cell line: H460
# Protocol: as §1
# DU145 cells = test: Cell growth inhibition bioassay (sulforhodamine B); format: cell-based, human; conditions: 48 h, SRB; for GI50: Homo sapiens, DU-145, read-out: GI50 in indicated cell line: DU145
# Protocol: as §1
# M-14 cells = test: Cell growth inhibition bioassay (sulforhodamine B); format: cell-based, human; conditions: 48 h, SRB; for GI50: Homo sapiens, M14, read-out: GI50 in indicated cell line: M-14
# Protocol: as §1
# MCF-7 cells = test: Cell growth inhibition bioassay (sulforhodamine B); format: cell-based, human; conditions: 48 h, SRB; for GI50: Homo sapiens, MCF7, read-out: GI50 in indicated cell line: MCF-7
# Protocol: as §1
# K562 cells = test: Cell growth inhibition bioassay (sulforhodamine B); format: cell-based, human; conditions: 48 h, SRB; for GI50: Homo sapiens, K562, read-out: GI50 in indicated cell line: K562
# Protocol: as §1
# HT-29 cells = test: Cell growth inhibition bioassay (sulforhodamine B); format: cell-based, human; conditions: 48 h, SRB; for GI50: Homo sapiens, HT-29, read-out: GI50 in indicated cell line: HT-29
# Protocol: as §1
# 3T3 cells = test: Cell growth inhibition bioassay (sulforhodamine B); format: cell-based, mouse; conditions: 48 h, SRB; for GI50: Mus musculus, NIH3T3, read-out: GI50 in indicated cell line: 3T3
# Protocol: as §1
# [6] = system: axenic amastigotes of L. amazonensis (strain MHOM/BR/76/LTB-012); test: microbe, parasite or virus in culture; conditions: Leishmania amazonensis
# VERO cells [7] = test: Cytotoxicity on VERO cells (MTT), anti-T. cruzi study; conditions: Chlorocebus sabaeus, Vero, read-out: IC50 VERO, Table 3
# peritoneal macrophages = test: Toxicity to peritoneal macrophages (Trypan Blue count); format: cell-based, BALB/C mouse
# Protocol: as §2
# [8] = Trypanosoma cruzi, TULAHUEN, Vero, Lab A, read-out: T. cruzi IC50 Lab A
# [9] = Trypanosoma cruzi, TULAHUEN, Vero, Lab B, read-out: T. cruzi IC50 Lab B
# [10] = Trypanosoma cruzi, TULAHUEN, Vero, Table 3, read-out: IC50 T. cruzi
# [11] = 72 h, read-out: IC50 L. amazonensis
# [12] = Mus musculus, Peritoneal macrophage, 48 h, Table 7, read-out: IC50 Macrophage
Compound,GI50 (VERO cells [1]),Selectivity Index [2],IC50 at 48 h [3],MIC (M. tuberculosis H37Rv),Selectivity Index Lab B ([4]; Lab B),"IC50 [4, 9]","IC50 ([5]; Cytotoxicity VERO Lab B, Lab B)",GI50 (H460 cells),GI50 (DU145 cells),GI50 (M-14 cells),GI50 (MCF-7 cells),GI50 (K562 cells),GI50 (HT-29 cells),GI50 (3T3 cells),IC50 ([6]; read-out: L. amazonensis IC50),other results
CC(C)(C)c1ccc(/C=N\Nc2ncnc3sc4c(c23)CCCC4)cc1 [II-08],2.5 µg/mL,3.8,2.4 µM,> 100 µg/mL,1.2,4.1 µg/mL,5 µg/mL,2.3 µg/mL,8 µg/mL,11 µg/mL,2.3 µg/mL,2.3 µg/mL,5.7 µg/mL,8.4 µg/mL,0.6 µM,"IC50 [4, 8]: 1.3 µg/mL"
"C=CCOc1cc(OC)c(C(=O)/C=C/c2ccc(C)cc2)c(OCC=C)c1 [Compound I-24, (2E)-1-[2-Methoxy-4,6-bis(2-propenyloxy)phenyl]-3-(4-methylphenyl)-2-propen-1-one]",,,,,,,,,,,,,,,,"inhibition at 10 µg/mL ([4]; Trypanosoma cruzi, TULAHUEN, Vero, 120 h, 10 μg/mL of each compound, 120 hours, read-out: T. cruzi Inhib. (%)): 60.2%; IC50 ([4]; Trypanosoma cruzi, TULAHUEN, Vero, Table 2, read-out: IC50 - T. cruzi): 6.28 µg/mL; IC50 [4, 10]: 17.2 µM; IC50 ([5]; IC50 - VERO Cytotoxicity, Table 2): 77 µg/mL; IC50 (VERO cells [7]): 211 µM; IC50 [6, 11]: 79.8 µM"
O=[N+]([O-])c1ccccc1C=NNc1ncnc2sc3c(c12)CCCC3 [II-23],,,,,,,,,,,,,,,,GI50 in indicated cell line: VERO (VERO cells [1]): >62.5 µg/mL; IC50 [2]: 38.1 µM; IC50 (peritoneal macrophages): > 100 µM; MIC MABA (M. tuberculosis H37Rv): >100 µg/mL; T. cruzi IC50 Lab A ([4]; Lab A): 1.1 µg/mL; GI50 in indicated cell line: H460 (H460 cells): 18.7 µg/mL; GI50 in indicated cell line: DU145 (DU145 cells): 36.4 µg/mL; GI50 in indicated cell line: M-14 (M-14 cells): 58.9 µg/mL; GI50 in indicated cell line: MCF-7 (MCF-7 cells): 18.4 µg/mL; GI50 in indicated cell line: K562 (K562 cells): 61.6 µg/mL; GI50 in indicated cell line: HT-29 (HT-29 cells): 70.5 µg/mL; GI50 in indicated cell line: 3T3 (3T3 cells): >62.5 µg/mL
C(=N/Nc1ncnc2sc3c(c12)CCCC3)/c1ccc2ccccc2c1 [II-03],2.9 µg/mL,0.4,5.7 µM,> 100 µg/mL,1.1,4.8 µg/mL,5 µg/mL,7.4 µg/mL,8.7 µg/mL,12.6 µg/mL,3.3 µg/mL,2.2 µg/mL,6.9 µg/mL,10 µg/mL,14 µM,
CC(C)c1ccc(/C=N\Nc2ncnc3sc4c(c23)CCCC4)cc1 [II-07],2.1 µg/mL,2.3,3 µM,> 100 µg/mL,0.5,1.8 µg/mL,1 µg/mL,2.1 µg/mL,3.8 µg/mL,6.2 µg/mL,1.8 µg/mL,1.4 µg/mL,2.1 µg/mL,3.3 µg/mL,1.3 µM,"IC50 [4, 8]: 0.9 µg/mL"
c1ccc(C(=NNc2ncnc3sc4c(c23)CCCC4)c2ccccc2)cc1 [II-49],> 62.5 µg/mL,0.9,59.8 µM,> 100 µg/mL,,,,> 62.5 µg/mL,> 62.5 µg/mL,> 62.5 µg/mL,> 62.5 µg/mL,> 62.5 µg/mL,> 62.5 µg/mL,> 62.5 µg/mL,70.1 µM,
C(=N/Nc1ncnc2sc3c(c12)CCCC3)/c1cccc2ccccc12 [II-02],4.3 µg/mL,1.3,6 µM,> 100 µg/mL,0.2,4.7 µg/mL,1 µg/mL,7.1 µg/mL,8.6 µg/mL,6.6 µg/mL,2.3 µg/mL,1.7 µg/mL,2.2 µg/mL,6 µg/mL,4.6 µM,
"CC1CS(=O)(=O)CCN1/N=C/c1ccc([N+](=O)[O-])o1 (stereo not drawn) [Nifurtimox, reference compound]",,,,,,,,,,,,,,,,"IC50 [4, 10]: 0.52 µM; IC50 (VERO cells [7]): 80.1 µM"
C(=N/Nc1ncnc2sc3c(c12)CCCC3)/c1ccc2c(c1)OCO2 [II-12],> 93.8 µg/mL,0.6,5.7 µM,> 100 µg/mL,0.7,8 µg/mL,6 µg/mL,> 93.8 µg/mL,> 93.8 µg/mL,> 93.8 µg/mL,41.4 µg/mL,> 93.8 µg/mL,> 93.8 µg/mL,> 93.8 µg/mL,10.4 µM,"IC50 [4, 8]: 2.3 µg/mL"
N#Cc1ccc(C=NNc2ncnc3sc4c(c23)CCCC4)cc1 [II-32],,,,,,,,,,,,,,,,GI50 in indicated cell line: VERO (VERO cells [1]): >62.5 µg/mL; IC50 [2]: 10.8 µM; IC50 (peritoneal macrophages): 53.9 µM; MIC MABA (M. tuberculosis H37Rv): >100 µg/mL; GI50 in indicated cell line: H460 (H460 cells): >62.5 µg/mL; GI50 in indicated cell line: DU145 (DU145 cells): >62.5 µg/mL; GI50 in indicated cell line: M-14 (M-14 cells): >62.5 µg/mL; GI50 in indicated cell line: MCF-7 (MCF-7 cells): 33.9 µg/mL; GI50 in indicated cell line: K562 (K562 cells): >62.5 µg/mL; GI50 in indicated cell line: HT-29 (HT-29 cells): >62.5 µg/mL; GI50 in indicated cell line: 3T3 (3T3 cells): 50.1 µg/mL
COc1ccc(/C=N\Nc2ncnc3sc4c(c23)CCCC4)c(OC)c1 [II-13],17.7 µg/mL,4.3,53 µM,> 100 µg/mL,1.8,6.8 µg/mL,12 µg/mL,10.9 µg/mL,7.4 µg/mL,34.8 µg/mL,7.8 µg/mL,2.9 µg/mL,7.4 µg/mL,7.3 µg/mL,12.2 µM,
"COc1cc(O)cc(O)c1C(=O)/C=C/c1ccccc1 [Compound I-29, (2E)-1-(2,4-Dihydroxy-6-methoxyphenyl)-3-(phenyl)-2-propen-1-one]",,,,,,,,,,,,,,,,"IC50 (peritoneal macrophages; [12]): 27 µM; IC50 [6, 11]: 15.9 µM"
C=CCOc1cc(/C=N\Nc2ncnc3sc4c(c23)CCCC4)cc(OCC=C)c1Br [II-17],2.2 µg/mL,0.7,1.7 µM,> 100 µg/mL,0.4,7.7 µg/mL,3 µg/mL,1.6 µg/mL,< 0.98 µg/mL,6.4 µg/mL,1.9 µg/mL,2 µg/mL,1.9 µg/mL,< 0.98 µg/mL,2.6 µM,"IC50 [4, 8]: 10.2 µg/mL"
C(=N/Nc1ncnc2sc3c(c12)CCCC3)/c1ccncc1 [II-20],38.3 µg/mL,0.7,47.7 µM,> 100 µg/mL,,,,52.4 µg/mL,26 µg/mL,> 62.5 µg/mL,26 µg/mL,33.8 µg/mL,47.3 µg/mL,25.7 µg/mL,72 µM,
"COc1cc(O)cc(O)c1C(=O)/C=C/c1ccccc1Br [Compound I-35, (2E)-3-(2-Bromophenyl)-1-(2,4-dihydroxy-6-methoxyphenyl)-2-propen-1-one]",,,,,,,,,,,,,,,,"IC50 (peritoneal macrophages; [12]): 14.6 µM; IC50 [6, 11]: 10.6 µM"
